How the values were obtained:
Experiment in all cases: relative viability (nuclei count vs DMSO), 5 days (fraction); higher = more cells survive
[1] = compound: COC1=C(C=C(C=C1)C2=CC3=NC=CN3C(=N2)NC4=C(C=CC=N4)C(=O)N)OC [BAY61-3606] + Cc1nc(NC(=O)N2CCC[C@H]2C(N)=O)sc1-c1ccnc(C(C)(C)C(F)(F)F)c1 [Alpelisib] (partner 2 µM)
Procedure, shortened: (§1)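 Cells from lung cancer lines were seeded into 1536-well plates and, one day later, dosed by pin tool. Treatments were either a single drug or a fixed dose of an anchor drug with five library-drug doses (not always all listed) in √10 steps. After 5 days, nuclei were stained in a one-step fixation (final 0.05% Triton X-100, 1% formaldehyde, 1 ug/ml Hoechst) and counted on 4× images, and relative viability is the treated-to-vehicle nuclei ratio, as the median of duplicate plates.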

[2] = compound: COc1cccc2c1C(=O)c1c(O)c3c(c(O)c1C2=O)C[C@@](O)(C(=O)CO)C[C@@H]3O[C@H]1C[C@H](N)[C@H](O)[C@H](C)O1 [Doxorubicin] + CC(C)C[C@H](NC(=O)[C@H](Cc1ccccc1)NC(=O)c1cnccn1)B(O)O [Bortezomib] (partner 0.002 µM)
Procedure, shortened: as §1

[3] = compound: COc1cccc2c1C(=O)c1c(O)c3c(c(O)c1C2=O)C[C@@](O)(C(=O)CO)C[C@@H]3O[C@H]1C[C@H](N)[C@H](O)[C@H](C)O1 [Doxorubicin] + C[C@]1(O)C[C@@H](c2nc(-c3ccc4ccc(-c5ccccc5)nc4c3)c3c(N)nccn32)C1 [Linsitinib] (partner 1 µM)
Procedure, shortened: as §1

[4] = compound: COC1=C(C=C(C=C1)C2=CC3=NC=CN3C(=N2)NC4=C(C=CC=N4)C(=O)N)OC [BAY61-3606] + O=C(c1cc(Cc2n[nH]c(=O)c3ccccc23)ccc1F)N1CCN(C(=O)C2CC2)CC1 [Olaparib] (partner 8 µM)
Procedure, shortened: as §1

NCI-H650
relative viability ([1]; first compound 0.02 µM): 1.27
relative viability ([1]; first compound 0.06325 µM): 1.12
relative viability ([1]; first compound 0.2 µM): 1
relative viability ([1]; first compound 0.6325 µM): 1.1
relative viability ([1]; first compound 2 µM): 0.871
relative viability ([2]; first compound 0.001 µM): 0.862
relative viability ([2]; first compound 0.003162 µM): 0.688
relative viability ([2]; first compound 0.01 µM): 0.914
relative viability ([2]; first compound 0.03162 µM): 0.697
relative viability ([2]; first compound 0.1 µM): 0.511
relative viability ([3]; first compound 0.001 µM): 1.01
relative viability ([3]; first compound 0.003162 µM): 0.753
relative viability ([3]; first compound 0.01 µM): 0.949
relative viability ([3]; first compound 0.03162 µM): 0.709
relative viability ([3]; first compound 0.1 µM): 0.411
relative viability ([4]; first compound 0.02 µM): 0.365
relative viability ([4]; first compound 0.06325 µM): 0.371
relative viability ([4]; first compound 0.2 µM): 0.382
relative viability ([4]; first compound 0.6325 µM): 0.395
relative viability ([4]; first compound 2 µM): 0.32

PC-14
relative viability ([1]; first compound 0.02 µM): 0.996
relative viability ([1]; first compound 0.06325 µM): 0.995
relative viability ([1]; first compound 0.2 µM): 0.929
relative viability ([1]; first compound 0.6325 µM): 1.06
relative viability ([1]; first compound 2 µM): 0.841
relative viability ([2]; first compound 0.001 µM): 0.775
relative viability ([2]; first compound 0.003162 µM): 0.964
relative viability ([2]; first compound 0.01 µM): 0.861
relative viability ([2]; first compound 0.03162 µM): 0.979
relative viability ([2]; first compound 0.1 µM): 0.94
relative viability ([3]; first compound 0.001 µM): 0.924
relative viability ([3]; first compound 0.003162 µM): 0.982
relative viability ([3]; first compound 0.01 µM): 0.959
relative viability ([3]; first compound 0.03162 µM): 0.922
relative viability ([3]; first compound 0.1 µM): 0.948
relative viability ([4]; first compound 0.06325 µM): 0.284
relative viability ([4]; first compound 0.2 µM): 0.212
relative viability ([4]; first compound 0.6325 µM): 0.235
relative viability ([4]; first compound 2 µM): 0.204

PC-3 [JPC-3]
relative viability ([1]; first compound 0.02 µM): 1.05
relative viability ([1]; first compound 0.06325 µM): 1.08
relative viability ([1]; first compound 0.2 µM): 1.04
relative viability ([1]; first compound 0.6325 µM): 1.05
relative viability ([1]; first compound 2 µM): 0.878
relative viability ([2]; first compound 0.001 µM): 0.81
relative viability ([2]; first compound 0.003162 µM): 0.926
relative viability ([2]; first compound 0.01 µM): 0.863
relative viability ([2]; first compound 0.03162 µM): 0.79
relative viability ([2]; first compound 0.1 µM): 0.8
relative viability ([3]; first compound 0.001 µM): 1.01
relative viability ([3]; first compound 0.003162 µM): 0.992
relative viability ([3]; first compound 0.01 µM): 0.94
relative viability ([3]; first compound 0.03162 µM): 0.907
relative viability ([3]; first compound 0.1 µM): 0.901
relative viability ([4]; first compound 0.02 µM): 1.25
relative viability ([4]; first compound 0.06325 µM): 1.16
relative viability ([4]; first compound 0.2 µM): 1.17
relative viability ([4]; first compound 0.6325 µM): 1.17
relative viability ([4]; first compound 2 µM): 1.06

NCI-H1755
relative viability ([1]; first compound 0.02 µM): 0.946
relative viability ([1]; first compound 0.06325 µM): 1.01
relative viability ([1]; first compound 0.2 µM): 0.908
relative viability ([1]; first compound 0.6325 µM): 0.903
relative viability ([1]; first compound 2 µM): 0.77
relative viability ([2]; first compound 0.001 µM): 0.99
relative viability ([2]; first compound 0.003162 µM): 0.947
relative viability ([2]; first compound 0.01 µM): 0.985
relative viability ([2]; first compound 0.03162 µM): 0.981
relative viability ([2]; first compound 0.1 µM): 0.969
relative viability ([3]; first compound 0.001 µM): 0.971
relative viability ([3]; first compound 0.003162 µM): 0.98
relative viability ([3]; first compound 0.01 µM): 1.02
relative viability ([3]; first compound 0.03162 µM): 1.05
relative viability ([3]; first compound 0.1 µM): 1.01
relative viability ([4]; first compound 0.02 µM): 0.908
relative viability ([4]; first compound 0.06325 µM): 0.883
relative viability ([4]; first compound 0.2 µM): 0.852
relative viability ([4]; first compound 0.6325 µM): 0.911
relative viability ([4]; first compound 2 µM): 0.789

NCI-H1299
relative viability ([1]; first compound 0.02 µM): 1.05
relative viability ([1]; first compound 0.06325 µM): 1.08
relative viability ([1]; first compound 0.2 µM): 1.07
relative viability ([1]; first compound 0.6325 µM): 1
relative viability ([1]; first compound 2 µM): 1.03
relative viability ([2]; first compound 0.001 µM): 1.04
relative viability ([2]; first compound 0.003162 µM): 1.03
relative viability ([2]; first compound 0.01 µM): 1.01
relative viability ([2]; first compound 0.03162 µM): 1.07
relative viability ([2]; first compound 0.1 µM): 0.962
relative viability ([3]; first compound 0.001 µM): 0.949
relative viability ([3]; first compound 0.003162 µM): 0.942
relative viability ([3]; first compound 0.01 µM): 1.03
relative viability ([3]; first compound 0.03162 µM): 0.943
relative viability ([3]; first compound 0.1 µM): 0.999
relative viability ([4]; first compound 0.02 µM): 1
relative viability ([4]; first compound 0.06325 µM): 0.987
relative viability ([4]; first compound 0.2 µM): 0.983
relative viability ([4]; first compound 0.6325 µM): 0.967
relative viability ([4]; first compound 2 µM): 0.936

H3255
relative viability ([1]; first compound 0.02 µM): 0.708
relative viability ([1]; first compound 0.06325 µM): 0.635
relative viability ([1]; first compound 0.2 µM): 0.673
relative viability ([1]; first compound 0.6325 µM): 0.874
relative viability ([1]; first compound 2 µM): 0.735
relative viability ([2]; first compound 0.001 µM): 0.675
relative viability ([2]; first compound 0.003162 µM): 0.889
relative viability ([2]; first compound 0.01 µM): 0.856
relative viability ([2]; first compound 0.03162 µM): 0.589
relative viability ([2]; first compound 0.1 µM): 0.306
relative viability ([3]; first compound 0.001 µM): 0.906
relative viability ([3]; first compound 0.003162 µM): 1.07
relative viability ([3]; first compound 0.01 µM): 0.908
relative viability ([3]; first compound 0.03162 µM): 0.9
relative viability ([3]; first compound 0.1 µM): 0.938
relative viability ([4]; first compound 0.02 µM): 0.545
relative viability ([4]; first compound 0.06325 µM): 0.486
relative viability ([4]; first compound 0.2 µM): 0.511
relative viability ([4]; first compound 0.6325 µM): 0.582
relative viability ([4]; first compound 2 µM): 0.516

201T
relative viability ([1]; first compound 0.02 µM): 1.07
relative viability ([1]; first compound 0.06325 µM): 1.03
relative viability ([1]; first compound 0.2 µM): 1.05
relative viability ([1]; first compound 0.6325 µM): 1.1
relative viability ([1]; first compound 2 µM): 1.09
relative viability ([2]; first compound 0.001 µM): 1.06
relative viability ([2]; first compound 0.003162 µM): 0.991
relative viability ([2]; first compound 0.01 µM): 1.14
relative viability ([2]; first compound 0.03162 µM): 1.15
relative viability ([2]; first compound 0.1 µM): 1.05
relative viability ([3]; first compound 0.001 µM): 1
relative viability ([3]; first compound 0.003162 µM): 0.979
relative viability ([3]; first compound 0.01 µM): 0.983
relative viability ([3]; first compound 0.03162 µM): 1.06
relative viability ([3]; first compound 0.1 µM): 1.01
relative viability ([4]; first compound 0.02 µM): 0.833
relative viability ([4]; first compound 0.06325 µM): 0.842
relative viability ([4]; first compound 0.2 µM): 0.865
relative viability ([4]; first compound 0.6325 µM): 0.838
relative viability ([4]; first compound 2 µM): 0.824

From the supplement of paper PMC10307832
